The molecules below were run on HEK Blue™ TNFα reporter cells (assay: TNF-α Induced HEK Blue Cellular Assay). Settings: TNF-α stimulated HEK Blue TNFα reporter cells, 24 hrs, secreted alkaline phosphatase (QUANTI-Blue, 620 nm).
Assay type: cell-based
Protocol: Test articles were diluted in DMSO and serially diluted into 384 well assay plate (Corning 3765), at final concentrations ranging from […] to 0.5 nM. HEK Blue™ TNFα reporter cells were added at a final density of 10,000 cell per well in assay media [DMEM (Gibco, cat #21063-029), 10% fetal bovine serum (ExcelBio, cat #FND500), 1% Penicillin-Streptomycin (Solarbio, cat #P1400-100]. TNF-α (R&D 210-TA-020/CF) was then added to the assay plate at a final concentration of […]. This plate was then incubated for 24 hrs at 37° C. and 5% CO2. Secreted alkaline phosphatase expression was then measured using QUANTI-Blue™(Invivogen), according to manufacturer instructions and read on an Envision microplate reader at 620 nm.
Inhibition data for test compound over a range of concentration was plotted as percentage inhibition of the test compound (100%=maximum inhibition). IC50 values were determined after correcting for background [(sample read-mean of low control)/(mean of high control-mean of low control)] whereby the low control is DMSO without stimulation and high control is DMSO with stimulation. The IC50 is defined as the concentration of test compound which produces […] and was quantified using the 4 parameter logistic equation to fit the data.

Row | Structure (SMILES) | IC50 [nM]
1 | CN1C(=O)c2cccc(OC(F)F)c2[C@H]2C[C@@H]1c1nc3ccc(-c4cnc5c(c4)CC[C@@]5(C)O)cc3n12 (single isomer, unassigned) [Example 11] | < 100
2 | CN1C(=O)c2cccc(OC(F)F)c2[C@H]2C[C@@H]1c1nc3ccc(-c4cnc5c(c4)CC[C@]5(C)O)cc3n12 (single isomer, unassigned) [Example 12] | < 100
3 | CN1C(=O)c2cccc(OC(F)F)c2[C@H]2C[C@@H]1c1nc3ccc(-c4cnc5c(c4)CC[C@@H]5N)cc3n12 (single isomer, unassigned) [Example 16] | < 100
4 | CN1C(=O)c2cccc(OC(F)F)c2[C@H]2C[C@@H]1c1nc3ccc(-c4cnc5c(c4)CC[C@H]5N)cc3n12 (single isomer, unassigned) [Example 17] | < 100
5 | CN1C(=O)c2cccc(OC(F)F)c2[C@H]2C[C@@H]1c1nc3ccc(-c4cnc5c(c4)CC[C@@]5(C)N)cc3n12 (single isomer, unassigned) [Example 22] | < 100
6 | CN1C(=O)c2cccc(OC(F)F)c2[C@H]2C[C@@H]1c1nc3ccc(-c4cnc5c(c4)CC[C@]5(C)N)cc3n12 (single isomer, unassigned) [Example 23] | < 100
7 | [2H]C([2H])([2H])N1C(=O)c2cccc(OC(F)F)c2[C@H]2C[C@@H]1c1nc3cc(F)c(-c4cnc5c(c4)CC[C@]5(C)N)cc3n12 (single isomer, unassigned) [Example 25] | < 100
8 | [2H]C([2H])([2H])N1C(=O)c2cccc(OC(F)F)c2[C@H]2C[C@@H]1c1nc3cc(F)c(-c4cnc5c(c4)CC[C@@]5(C)N)cc3n12 (single isomer, unassigned) [Example 26] | < 100
9 | [2H]C([2H])([2H])N1C(=O)c2cccc(OC(F)F)c2[C@H]2C[C@@H]1c1nc3ccc(-c4cnc5c(c4)CC[C@]5(C)N)cc3n12 (single isomer, unassigned) [Example 28] | < 100
10 | [2H]C([2H])([2H])N1C(=O)c2cccc(OC(F)F)c2[C@H]2C[C@@H]1c1nc3ccc(-c4cnc5c(c4)CC[C@@]5(C)N)cc3n12 (single isomer, unassigned) [Example 29] | < 100
11 | [2H]C([2H])([2H])N1C(=O)c2cccc(OC(F)F)c2[C@H]2C[C@@H]1c1nc3ccc(-c4cnc5c(c4)CC[C@]5(C)O)cc3n12 (single isomer, unassigned) [Example 32] | < 100
12 | [2H]C([2H])([2H])N1C(=O)c2cccc(OC(F)F)c2[C@H]2C[C@@H]1c1nc3ccc(-c4cnc5c(c4)CC[C@@]5(C)O)cc3n12 (single isomer, unassigned) [Example 33] | < 100
13 | [2H]C([2H])([2H])N1C(=O)c2cccc(OC(F)F)c2[C@H]2C[C@@H]1c1nc3ccc(-c4cnc5c(c4)OCC[C@]5(C)O)cc3n12 (single isomer, unassigned) [Example 34] | < 100
14 | [2H]C([2H])([2H])N1C(=O)c2cccc(OC(F)F)c2[C@H]2C[C@@H]1c1nc3ccc(-c4cnc5c(c4)OCC[C@@]5(C)O)cc3n12 (single isomer, unassigned) [Example 35] | < 100
15 | CN1C(=O)c2cccc(OC(F)F)c2[C@H]2C[C@@H]1c1nc3ccc(-c4cnc5c(c4)CC[C@]5(N)CO)cc3n12 (single isomer, unassigned) [Example 36] | < 100
16 | CN1C(=O)c2cccc(OC(F)F)c2[C@H]2C[C@@H]1c1nc3ccc(-c4cnc5c(c4)CC[C@@]5(N)CO)cc3n12 (single isomer, unassigned) [Example 37] | < 100
17 | [2H]C([2H])([2H])N1C(=O)c2cccc(OC(F)F)c2[C@H]2C[C@@H]1c1nc3ccc(-c4cnc5c(c4)COC[C@]5(C)O)cc3n12 (single isomer, unassigned) [Example 38] | 10000 to 30000
18 | [2H]C([2H])([2H])N1C(=O)c2cccc(OC(F)F)c2[C@H]2C[C@@H]1c1nc3ccc(-c4cnc5c(c4)COC[C@@]5(C)O)cc3n12 (single isomer, unassigned) [Example 39] | 10000 to 30000
19 | [2H]C([2H])([2H])N1C(=O)c2cccc(OC(F)F)c2[C@H]2C[C@@H]1c1nc3ccc(-c4cnc5c(c4)COC[C@@]5(O)CC)cc3n12 (single isomer, unassigned) [Example 40] | 10000 to 30000
20 | [2H]C([2H])([2H])N1C(=O)c2cccc(OC(F)F)c2[C@H]2C[C@@H]1c1nc3ccc(-c4cnc5c(c4)COC[C@]5(O)CC)cc3n12 (single isomer, unassigned) [Example 41] | 10000 to 30000
21 | [2H]C([2H])([2H])N1C(=O)c2cccc(OC(F)F)c2[C@H]2C[C@@H]1c1nc3ccc(-c4cnc5c(c4)NC(=O)[C@]5(C)O)cc3n12 (single isomer, unassigned) [Example 42] | < 100

Row | Structure (SMILES) | IC50 [nM]
22 | [2H]C([2H])([2H])N1C(=O)c2cccc(OC(F)F)c2[C@H]2C[C@@H]1c1nc3ccc(-c4cnc5c(c4)NC(=O)[C@@]5(C)O)cc3n12 (single isomer, unassigned) [Example 43] | < 100
23 | [2H]C([2H])([2H])N1C(=O)c2cccc(OC(F)F)c2[C@H]2C[C@@H]1c1nc3ccc(-c4cnc5c(c4)OC[C@]5(C)O)cc3n12 (single isomer, unassigned) [Example 46] | < 100
24 | [2H]C([2H])([2H])N1C(=O)c2cccc(OC(F)F)c2[C@H]2C[C@@H]1c1nc3ccc(-c4cnc5c(c4)OC[C@@]5(C)O)cc3n12 (single isomer, unassigned) [Example 47] | < 100
25 | [2H]C([2H])([2H])N1C(=O)c2cccc(OC(F)F)c2[C@H]2C[C@@H]1c1nc3ccc(-c4cnc5c(c4)CC[C@@]5(C)O)c(F)c3n12 (single isomer, unassigned) [Example 49] | 100 to 1000
26 | [2H]C([2H])([2H])N1C(=O)c2cccc(OC(F)F)c2[C@H]2C[C@@H]1c1nc3ccc(-c4cnc5c(c4)CC[C@]5(C)O)c(F)c3n12 (single isomer, unassigned) [Example 50] | < 100
27 | [2H]C([2H])([2H])N1C(=O)c2cccc(OC(F)F)c2[C@H]2C[C@@H]1c1nc3ccc(-c4cnc5c(c4)OCC[C@@]5(C)O)c(F)c3n12 (single isomer, unassigned) [Example 51] | < 100
28 | [2H]C([2H])([2H])N1C(=O)c2cccc(OC(F)F)c2[C@H]2C[C@@H]1c1nc3ccc(-c4cnc5c(c4)OCC[C@]5(C)O)c(F)c3n12 (single isomer, unassigned) [Example 52] | < 100
29 | [2H]C([2H])([2H])N1C(=O)c2cccc(OC(F)F)c2[C@H]2C[C@@H]1c1nc3ccc(-c4cnc5c(c4)OC[C@@]5(C)O)c(F)c3n12 (single isomer, unassigned) [Example 53] | < 100
30 | [2H]C([2H])([2H])N1C(=O)c2cccc(OC(F)F)c2[C@H]2C[C@@H]1c1nc3ccc(-c4cnc5c(c4)OC[C@]5(C)O)c(F)c3n12 (single isomer, unassigned) [Example 54] | < 100
31 | [2H]C([2H])([2H])N1C(=O)c2cccc(OC(F)F)c2[C@H]2C[C@@H]1c1nc3ccc(-c4cnc5c(c4)OC[C@]5(C)N)cc3n12 (single isomer, unassigned) [Example 55] | < 100
32 | [2H]C([2H])([2H])N1C(=O)c2cccc(OC(F)F)c2[C@H]2C[C@@H]1c1nc3ccc(-c4cnc5c(c4)OC[C@@]5(C)N)cc3n12 (single isomer, unassigned) [Example 56] | < 100
33 | CN1C(=O)c2cccc(OC(F)F)c2[C@H]2C[C@@H]1c1nc3ccc(-c4cnc5c(c4)OC[C@]5(C)N)cc3n12 (single isomer, unassigned) [Example 57] | < 100
34 | CN1C(=O)c2cccc(OC(F)F)c2[C@H]2C[C@@H]1c1nc3ccc(-c4cnc5c(c4)OC[C@@]5(C)N)cc3n12 (single isomer, unassigned) [Example 58] | < 100
35 | [2H]C([2H])([2H])N1C(=O)c2cccc(OC(F)F)c2[C@H]2C[C@@H]1c1nc3ccc(-c4cnc5c(c4)OC[C@@]5(C)N)nc3n12 (single isomer, unassigned) [Example 59] | 10000 to 30000
36 | [2H]C([2H])([2H])N1C(=O)c2cccc(OC(F)F)c2[C@H]2C[C@@H]1c1nc3ccc(-c4cnc5c(c4)OC[C@]5(C)N)nc3n12 (single isomer, unassigned) [Example 60] | 100 to 1000
37 | [2H]C([2H])([2H])N1C(=O)c2cccc(OC(F)F)c2[C@H]2C[C@@H]1c1nc3cc(F)c(-c4cnc5c(c4)OC[C@@]5(C)N)cc3n12 (single isomer, unassigned) [Example 61] | < 100
38 | [2H]C([2H])([2H])N1C(=O)c2cccc(OC(F)F)c2[C@H]2C[C@@H]1c1nc3cc(F)c(-c4cnc5c(c4)OC[C@]5(C)N)cc3n12 (single isomer, unassigned) [Example 62] | < 100
39 | [2H]C([2H])([2H])N1C(=O)c2cccc(OC(F)F)c2[C@H]2C[C@@H]1c1nc3ccc(-c4cnc5c(c4)OC[C@@]5(C)O)nc3n12 (single isomer, unassigned) [Example 63] | 100 to 1000
40 | [2H]C([2H])([2H])N1C(=O)c2cccc(OC(F)F)c2[C@H]2C[C@@H]1c1nc3ccc(-c4cnc5c(c4)OC[C@]5(C)O)nc3n12 (single isomer, unassigned) [Example 64] | 100 to 1000
41 | [2H]C([2H])([2H])N1C(=O)c2cccc(OC(F)F)c2[C@H]2C[C@@H]1c1nc3ccc(-c4cnc5c(c4)OC[C@@]5(C)N)c(F)c3n12 (single isomer, unassigned) [Example 65] | < 100
42 | [2H]C([2H])([2H])N1C(=O)c2cccc(OC(F)F)c2[C@H]2C[C@@H]1c1nc3ccc(-c4cnc5c(c4)OC[C@]5(C)N)c(F)c3n12 (single isomer, unassigned) [Example 66] | < 100

Source: US20260028348A1, “MODULATORS OF TNF-ALPHA ACTIVITY” (Forward Therapeutics, Inc., priority 2023, published 2026)
